Assay results taken from PubChem BioAssay (NCI).
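96-well plates; 48 h exposure; 5 concentrations. Endpoints by linear interpolation between flanking doses. Not reached: highest tested concentration assigned. GI50 = concentration required for 50% inhibition of growth. TGI is the concentration that stops growth completely.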

Legend:
Assay in all cases: NCI tumour cell line growth inhibition, 48 h
[1] = system: SK-MEL-28 melanoma
[2] = system: MOLT-4 leukemia
[3] = system: OVCAR-3 ovarian
[4] = system: HOP-92 NSCLC
[5] = system: UACC-257 melanoma
[6] = system: CAKI-1 renal
[7] = system: 786-0 renal
[8] = system: EKVX NSCLC
[9] = system: SW-620 colon
[10] = system: SN12C renal

SMILES | GI50 [1] [µM] | TGI [1] [µM] | GI50 [2] [µM] | TGI [2] [µM] | GI50 [3] [µM] | TGI [3] [µM] | GI50 [4] [µM] | TGI [4] [µM] | GI50 [5] [µM] | TGI [5] [µM] | GI50 [6] [µM] | TGI [6] [µM] | GI50 [7] [µM] | TGI [7] [µM] | GI50 [8] [µM] | TGI [8] [µM] | GI50 [9] [µM] | TGI [9] [µM] | GI50 [10] [µM] | TGI [10] [µM]
O=C(NCCCNc1cc(-c2cn(-c3ccccc3)nc2-c2cccc(O)c2)ccn1)c1ccc(F)cc1 | 1.74 | 4.12 | 2.36 | 14 | 4.03 | 40.7 | 2.13 | 7.65 | 1.8 | 3.87 | 2.84 | 21.2 | 1.49 | 3.62 | 3.7 | 69.1 | 2.95 | 9.55 | 4.29 | 30.8
COc1ccc(C(=O)O[C@@H]2CCN3CC[C@H](C)[C@H]23)cc1 | – | > 100 | – | > 100 | – | > 100 | – | > 100 | – | > 100 | – | > 100 | – | > 100 | – | > 100 | – | > 100 | – | > 100
O=C1C2=C(c3ccccc31)C(c1ccccc1Cl)NC(=S)N2 (stereo not given) | – | > 100 | – | > 100 | – | > 100 | – | 68.4 | – | > 100 | – | > 100 | – | > 100 | – | > 100 | – | > 100 | – | > 100
